Reference: US6380238B1, “Indoline derivatives as 5-HT2B and or 5-HTC receptor ligands” (Vernalis Research Limited, priority 1998, dated 2002)
Where a name gives a salt, the structure may show the parent alone. Read-outs that look alike come from different tables or passages of the source.

How the values were obtained:
5-HT2C receptor [1] = biological target: T1, 5-HT2C receptor (Homo sapiens, UniProt P28335); experiment: Binding to 5-HT2C receptor, [3H]-5-HT radioligand, CHO cell line; design: expressed in transfected cells; host or cells: CHO cell line
T1 sequence (P28335 33-458): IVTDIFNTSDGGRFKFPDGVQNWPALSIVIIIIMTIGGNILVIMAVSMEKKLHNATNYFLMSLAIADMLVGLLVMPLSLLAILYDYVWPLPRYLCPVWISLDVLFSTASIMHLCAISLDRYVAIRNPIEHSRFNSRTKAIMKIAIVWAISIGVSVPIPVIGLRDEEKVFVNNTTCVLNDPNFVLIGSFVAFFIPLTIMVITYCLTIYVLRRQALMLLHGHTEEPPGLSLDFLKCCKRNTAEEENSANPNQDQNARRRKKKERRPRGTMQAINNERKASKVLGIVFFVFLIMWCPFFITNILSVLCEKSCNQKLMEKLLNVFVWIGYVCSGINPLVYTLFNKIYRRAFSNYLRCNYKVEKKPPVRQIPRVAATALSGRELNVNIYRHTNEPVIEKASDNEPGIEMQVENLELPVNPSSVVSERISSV
Method: (§1) 1. Binding to Serotonin Receptors
(§2) The binding of compounds of formula (I) to serotonin receptors was determined in vitro by standard methods. The preparations were investigated in accordance with the assays given hereinafter.
Method (a): For the binding to the 5-HT2C receptor the 5-HT2C receptors were radiolabeled with [^3H]-5-HT. The affinity of the compounds for 5-HT2C receptors in a CHO cell line was determined according to the procedure of D. Hoyer, G. Engel and H. O. Kalkman, European J. Pharmacol., 1985, 118, 13-23.

5-HT2C syndrome = 5-HT2C syndrome in rats (splayed limbs, hunched posture, retro-pulsion); format: in vivo; settings: 30 mg/kg s.c.
Method: The efficacy of 5-HT2C agonists was assessed for ability to induce a specific syndrome.
The 5-HT2C syndrome is a rapid screening method to assess the in vivo efficacy of 5-HT2C agonists through their ability to induce three specific behaviours in rats. The animals are dosed with either a positive control (mCPP), test compound or vehicle, either sub-cutaneously or p.o. The animals are observed on an open bench, typically 30, 60 and 180 minutes and the degree of syndrome is assessed over a two minute period on a scale of 0-3 depending on the presence and severity of splayed limbs, hunched posture and retro-pulsion, the three specific behaviours which constitute the syndrome. Data is analysed using Kruskal-Wallis Analysis of Variance followed with appropriate post-hoc tests. All statistical analysis are conducted using Excel version 7.0 (Microsoft Corp.) and Statistica version 5.0 (Statsoft, Inc.).

5-HT2A receptor [2] = biological target: T2, 5-HT2A receptor (Homo sapiens, UniProt P28223); experiment: Binding to 5-HT2A receptor, [125I]-DOI radioligand, CHO cell line; design: expressed in transfected cells; host or cells: CHO cell line
Method: as §1, §2
Method (c): For the binding to the 5-HT2A receptor the 5-HT2A receptors were radiolabeled with [^125I]-DOI. The affinity of the compounds for 5-HT2A receptors in a CHO cell line was determined according to the procedure of D. J. McKenna and S. J. Peroutka, J. Neurosci., 1989, 9, 3482-90.

human 5-HT2B receptors = biological target: T3, human 5-HT2B receptors (Homo sapiens, UniProt P41595); experiment: Binding to 5-HT2B receptor, [3H]-5-HT radioligand, CHO cell line
T3 construct: expressed in transfected cells; host or cells: CHO cell line
Method: as §1, §2
Method (b): For the binding to the 5-HT2B receptor the 5-HT2B receptors were radiolabeled with [^3H]-5-HT. The affinity of the compounds for human 5-HT2B receptors in a CHO cell line was determined according to the procedure of K. Schmnuck, C. Ullmer, P. Engels and H. Lubbert, FEBS Lett., 1994, 342, 85-90.

5-HT2C receptor [3] = biological target: T1, 5-HT2C receptor; experiment: Functional activity, FLIPR calcium assay in CHO cells expressing human 5-HT2C; format: cell-based; design: expressed in transfected cells; host or cells: CHO cells; settings: for Emax: CHO, read-out: h5-HT2C Relative Efficacy (%)
Method: (§3) The functional activity of compounds of formula (I) was assayed using a Fluorimetric Imaging Plate reader (FLIPR). CHO cells expressing the human 5-HT2C or human 5-HT2A receptors were counted and plated into standard 96 well microtitre plates on the day before testing to give a confluent monolayer. The cells were then dye loaded with the calcium sensitive dye, Fluo-3-AM. Unincorporated dye was removed using an automated cell washer to leave a total volume of 100 μL/well of assay buffer (Hanks balanced salt solution containing 20 mM Hepes and 2.5 mM probenecid). The drug (dissolved in 50 μL of the assay buffer) was added at a rate of 70 μL/sec to each well of the FLIPR 96 well plate during fluorescence measurements. The measurements were taken at 1 sec intervals and the maximum fluorescent signal was measured (approx 10-15 secs after drug addition) and compared with the response produced by 10 μM 5-HT (defined as 100%) to which it was expressed as a percentage response (relative efficacy). Dose response curves were constructed using Graphpad Prism (Graph Software Inc.).

5-HT2A receptor [4] = biological target: T2, 5-HT2A receptor; experiment: Functional activity, FLIPR calcium assay in CHO cells expressing human 5-HT2A; format: cell-based; design: expressed in transfected cells; host or cells: CHO cells; settings: for Emax: CHO, read-out: h5-HT2A Relative Efficacy (%)
Method: as §3

[5] = cited from earlier work
[6] = cited from earlier work; remark: listed apart in the source
5-HT2C receptor [7] = settings: cited from earlier work
[8] = [3H]-5-HT, CHO cell line, read-out: Ki (2C)
[9] = [125I]-DOI, CHO cell line, read-out: Ki (2A)
[10] = [3H]-5-HT, human receptor, CHO cell line, read-out: Ki (2B)
[11] = FLIPR, CHO cells, Fluo-3-AM, read-out: h5-HT2C EC50
[12] = FLIPR, CHO cells, Fluo-3-AM, read-out: h5-HT2A EC50

T2 sequence (P28223 whole entry): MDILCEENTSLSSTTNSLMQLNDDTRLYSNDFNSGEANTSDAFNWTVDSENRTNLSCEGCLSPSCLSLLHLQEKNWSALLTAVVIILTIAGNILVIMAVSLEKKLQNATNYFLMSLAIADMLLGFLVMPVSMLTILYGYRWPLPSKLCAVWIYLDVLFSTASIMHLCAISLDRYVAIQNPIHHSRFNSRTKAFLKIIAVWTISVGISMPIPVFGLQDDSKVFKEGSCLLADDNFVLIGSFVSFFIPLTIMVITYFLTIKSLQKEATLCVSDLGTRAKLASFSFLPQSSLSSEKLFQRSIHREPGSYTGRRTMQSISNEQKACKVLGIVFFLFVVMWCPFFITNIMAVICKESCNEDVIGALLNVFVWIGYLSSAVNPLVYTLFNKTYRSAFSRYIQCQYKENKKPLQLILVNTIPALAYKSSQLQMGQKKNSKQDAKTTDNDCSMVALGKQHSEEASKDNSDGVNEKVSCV
T3 sequence (P41595 whole entry): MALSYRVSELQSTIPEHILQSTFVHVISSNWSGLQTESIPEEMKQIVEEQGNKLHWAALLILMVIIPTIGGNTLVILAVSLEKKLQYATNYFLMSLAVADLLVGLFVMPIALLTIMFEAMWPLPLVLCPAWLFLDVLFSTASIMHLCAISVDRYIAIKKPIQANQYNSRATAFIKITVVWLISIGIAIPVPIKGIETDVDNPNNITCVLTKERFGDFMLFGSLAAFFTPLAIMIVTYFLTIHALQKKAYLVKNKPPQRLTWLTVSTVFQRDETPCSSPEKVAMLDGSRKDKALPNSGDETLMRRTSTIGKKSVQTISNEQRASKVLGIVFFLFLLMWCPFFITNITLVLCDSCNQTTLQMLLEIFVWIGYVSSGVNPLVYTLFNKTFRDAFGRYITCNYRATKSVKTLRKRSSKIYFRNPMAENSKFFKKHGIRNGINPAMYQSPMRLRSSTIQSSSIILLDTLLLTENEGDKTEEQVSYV

Work on `CCSc1cc2c(cc1F)CCN2C[C@H](C)N` (as salt: fumarate) [Example 31] yielded a melting point of 164 to 168 °C.

With `Cc1cccc2c1CCN2C[C@H](C)N` (as salt: fumarate) [Example 32] the melting point was 161 to 162 °C.

`C[C@H](N)CN1CCc2c(F)cccc21` (as salt: fumarate) [Example 35] gave a melting point of 167 to 168 °C.

With `CCc1cccc2c1N(C[C@H](C)N)CC2` (as salt: fumarate) [Example 37] the melting point was 182 to 183 °C.

Work on `C[C@H](N)CN1CCc2c(Cl)cccc21` (as salt: fumarate) [Example 38] yielded a melting point of 190 to 192 °C.

With `CCCSc1ccc2c(c1)N(C[C@H](C)N)CC2` (as salt: fumarate) [Example 41] the melting point was 147 to 148 °C.

Molecule `CC(C)Sc1ccc2c(c1)N(C[C@H](C)N)CC2` (as salt: fumarate) [Example 42] has a melting point of 164 to 165 °C.

For `C[C@H](N)CN1CCc2ccc(-c3cccnc3)cc21` (as salt: fumarate) [Example 47], the melting point was 155 °C (dec.).

For `C[C@H](N)CN1CCc2ccc(N3CCOCC3)cc21` (as salt: fumarate) [Example 49, (S)-1-[6-(4-Morpholinyl)indolin-1-yl]-2-propylamine Fumarate], the melting point was 188 to 191 °C (dec.).

For `NCCN1CCc2ccc(Br)cc21` (as salt: fumarate) [Example 50, 2-(6-Bromoindolin-1-yl)-1-ethylamine Fumarate], the melting point was 203 to 206 °C.

With `NCCN1CCc2ccc(Cl)cc21` (as salt: fumarate) [Example 51, 2-(6-Chloroindolin-1-yl)-1-ethylamine Fumarate] the melting point was 195 to 196 °C.

Molecule `C[C@H](N)CN1CCc2cc(F)c(C(F)(F)F)cc21` (as salt: fumarate) [Example 60, (S)-1-(5-Fluoro-6-trifluoromethylindolin-1-yl)-2-propylamine Fumarate] has a melting point of 190 to 192 °C.

With `C[C@H](N)CN1CCc2cc(F)c(I)cc21` (as salt: fumarate) [Example 61, (S)-1-(5-Fluoro-6-iodoindolin-1-yl)-2-propylamine Fumarate] the melting point was 185 to 187 °C.

`CC(N)CN1CCc2ccc(Cl)cc21` (racemic) (as salt: hydrochloride) [Example 1, (RS)-1-(6-Chloroindolin-1-yl)-2-propylamine Hydrochloride] showed a melting point of 262 °C.

Molecule `COc1ccc2c(c1)N(CC(C)N)CC2` (racemic) (as salt: hydrochloride) [Example 2, (RS)-1-(6-Methoxyindolin-1-yl)-2-propylamine Hydrochloride] has a melting point of 142 to 143 °C.

With `CC(N)CN1CCc2ccc(Cl)cc21` (racemic) [Example 1, (RS)-1-(6-Chloroindolin-1-yl)-2-propylamine Hydrochloride] the Ki (5-HT2C receptor [1]) was 357 nM, the “time for which significant pharmacological efficacy is maintained (5-HT2C syndrome)” value (5-HT2C syndrome) was “at least 180 minutes” and the Ki (5-HT2A receptor [2]) was 405 nM. It also gave a Ki (human 5-HT2B receptors) of 113 nM.

With `C[C@H](N)CN1CCc2ccc(Cl)cc21` [Example 10, (S)-1-(6-Chloroindolin-1-yl)-2-propylamine Fumarate] the Ki (5-HT2C receptor [1]) was 55 nM, the Ki (5-HT2A receptor [2]) was 252 nM and the Ki (human 5-HT2B receptors) was 138 nM. The EC50 (5-HT2C receptor [3]) was 125 nM, the Emax (5-HT2C receptor [3]) was 62% and the EC50 (5-HT2A receptor [4]) was 2210 nM. It also gave an Emax (5-HT2A receptor [4]) of 49%.

Work on `C[C@H](N)CN1CCc2ccc(Br)cc21` [Example 12] yielded a Ki (5-HT2C receptor [1]) of 77 nM, a Ki (5-HT2A receptor [2]) of 1090 nM and a Ki (human 5-HT2B receptors) of 42 nM. It also gave an EC50 (5-HT2C receptor [3]) of 230 nM, an Emax (5-HT2C receptor [3]) of 59% and an EC50 (5-HT2A receptor [4]) of 2410 nM. The Emax (5-HT2A receptor [4]) was 49%.

Work on `COc1ccc2c(c1)N(C[C@H](C)N)CC2` [Example 13] yielded a Ki (5-HT2C receptor [1]) of 122 nM, a Ki (5-HT2A receptor [2]) of 461 nM and a Ki (human 5-HT2B receptors) of 175 nM. It also gave an EC50 (5-HT2C receptor [3]) of 75 nM, an Emax (5-HT2C receptor [3]) of 74% and an EC50 (5-HT2A receptor [4]) of 386 nM. For the same molecule, the Emax (5-HT2A receptor [4]) was 72%.

Molecule `C[C@H](N)CN1CCc2cc(F)c(F)cc21` [Example 22] has a Ki (5-HT2C receptor [1]) of 260 nM, a Ki (5-HT2A receptor [2]) of 325 nM and a Ki (human 5-HT2B receptors) of 92 nM. The EC50 (5-HT2C receptor [3]) was 83 nM, the Emax (5-HT2C receptor [3]) was 87% and the EC50 (5-HT2A receptor [4]) was 2570 nM. The Emax (5-HT2A receptor [4]) was 57%.

With `C[C@H](N)CN1CCc2ccc(C(F)(F)F)cc21` [Example 24] the Ki (5-HT2C receptor [1]) was 235 nM, the Ki (5-HT2A receptor [2]) was 1870 nM and the Ki (human 5-HT2B receptors) was 148 nM. It also gave an EC50 (5-HT2C receptor [3]) of 131 nM, an Emax (5-HT2C receptor [3]) of 72% and an EC50 (5-HT2A receptor [4]) of 3650 nM. It also gave an Emax (5-HT2A receptor [4]) of 33%.

`C[C@H](N)CN1CCc2cc(F)c(Br)cc21` [Example 25] showed a Ki (5-HT2C receptor [1]) of 63 nM, a Ki (5-HT2A receptor [2]) of 156 nM and a Ki (human 5-HT2B receptors) of 22 nM. For the same molecule, the EC50 (5-HT2C receptor [3]) was 21 nM, the Emax (5-HT2C receptor [3]) was 81% and the EC50 (5-HT2A receptor [4]) was 1240 nM. The Emax (5-HT2A receptor [4]) was 57%.

For `C[C@@H](N)CN1CCc2ccc(C(F)(F)F)cc21` [Example 26], the Ki (5-HT2C receptor [1]) was 1160 nM, the Ki (5-HT2A receptor [2]) was 1260 nM and the Ki (human 5-HT2B receptors) was 761 nM.

With `NCCN1CCc2ccc(Br)cc21` [Example 50, 2-(6-Bromoindolin-1-yl)-1-ethylamine Fumarate] the Ki (5-HT2C receptor [1]; [8]) was 61 nM, the Ki (5-HT2A receptor [2]; [9]) was 332 nM and the Ki (human 5-HT2B receptors; [10]) was 159 nM. The Emax (5-HT2C receptor [3]) was 78%, the EC50 (5-HT2C receptor [3]; [11]) was 38 nM and the Emax (5-HT2A receptor [4]) was 25%. The EC50 (5-HT2A receptor [4]; [12]) was 4080 nM.

`NCCN1CCc2ccc(Cl)cc21` [Example 51, 2-(6-Chloroindolin-1-yl)-1-ethylamine Fumarate] gave a Ki (5-HT2C receptor [1]; [8]) of 165 nM, a Ki (5-HT2A receptor [2]; [9]) of 1110 nM and a Ki (human 5-HT2B receptors; [10]) of 140 nM. The Emax (5-HT2C receptor [3]) was 88%, the EC50 (5-HT2C receptor [3]; [11]) was 36 nM and the Emax (5-HT2A receptor [4]) was 45%. For the same molecule, the EC50 (5-HT2A receptor [4]; [12]) was 1890 nM.

In the case of `Clc1cccc(N2CCNCC2)c1` [mCPP, m-chlorophenylpiperazine], the “appearance of the behavioural satiety sequence” value ([5]; rat, in vivo) is listed as “accelerate the appearance of the behavioural satiety sequence”, the “food intake in rats” value ([5]; rats) is listed as “reduce food intake” and the “appetite and body weight of obese subjects” value ([6]; obese male and female subjects, subchronic treatment for a 14 day period) is listed as “decreased the appetite and body weight”. The “food intake in female volunteers” value ([6]; single dose, female volunteers) was “decreased food intake” and the “anorectic action in 5-HT2C receptor knockout mutant mice” value (5-HT2C receptor [7]) was “absent”.
